This passage reports EC50 results from paper PMC9638024, “Functional rewiring of G protein-coupled receptor signaling in human labor” (Cell Reports, 2022).

The target of the assay is T1, EP2 (prostaglandin E2 receptor EP2) (Homo sapiens, UniProt P43116).
T1 construct: gene PTGER2; FLAG-EP2 stably expressed in HEK 293 cells
Nature of the assay: cAMP accumulation dose-response in HEK […] cells stably expressing FLAG-EP2 (agonist). It counts as cell-based.

T1 sequence (P43116 whole entry): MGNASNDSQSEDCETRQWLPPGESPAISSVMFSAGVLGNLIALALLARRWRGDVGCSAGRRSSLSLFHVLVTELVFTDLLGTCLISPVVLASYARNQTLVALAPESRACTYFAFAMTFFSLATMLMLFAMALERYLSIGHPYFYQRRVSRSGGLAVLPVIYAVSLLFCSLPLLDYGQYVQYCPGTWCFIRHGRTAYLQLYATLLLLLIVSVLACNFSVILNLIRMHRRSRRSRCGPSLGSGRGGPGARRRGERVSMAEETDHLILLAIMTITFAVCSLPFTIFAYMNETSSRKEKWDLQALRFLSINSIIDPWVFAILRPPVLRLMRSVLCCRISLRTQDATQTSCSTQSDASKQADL

The compound `CC(C)OC(=O)COc1cccc(NC(=O)c2cc(-c3cccc(F)c3)ccc2F)c1` [PGN9856i] displayed an EC50 of 2.11 nM.
